US10301323B2, “Histone deacetylase inhibitors” (BIOMARIN PHARMACEUTICAL INC., priority 2011, dated 2019)
Where two headings read alike, the source gives them in different places.

Experiments:
[1] = system: frataxin (FXN) mRNA in primary lymphocytes from Friedreich's ataxia patient donors; assay: Effect of HDAC inhibitors on frataxin (FXN) mRNA expression; assay type: cell-based, human; conditions: Table 4, concentration required for a 2-fold increase in FXN mRNA, 48 hours
Method: Blood is collected from Friedreich's ataxia patient donors into tubes containing the anti-coagulant EDTA. Primary lymphocytes are isolated using Lymphocyte Separation Medium (MP Biomedicals, Solon, Ohio) following the manufacturer's instructions and including a few modifications made by Repligen. After a final wash in Phosphate Buffered Saline (PBS), the cells are distributed into a 6-well cell culture plate in cell growth medium. The test HDAC inhibitor compound is added to cells in a dose escalating manner (usually concentrations range from 1 to 10 μM) and 0.1% DMSO is added to one well of cells as a no treatment control. Cells are incubated for 48 hours at 37° C. in a CO2 incubator; cell counts are taken using a Countess automated cell counter (Invitrogen, Carlsbad, Calif.). Equivalent numbers of cells for all treatment conditions are pelleted by centrifugation and resuspended in cell lysis buffer. Total RNA is isolated from approximately 1×10^6 primary lymphocytes using a RNeasy Mini Kit (Qiagen, Valencia, Calif.), following the manufacturer's instructions and including an optional on-column DNAse digestion step. […] The RNA yield and concentration is determined using a Nanodrop spectrophotometer (Thermo Fisher Scientific, Waltham, Mass.) and depending on the RNA concentration, one of two protocols is used to measure frataxin (FXN) transcript levels. […] In both methods each RNA sample is analyzed in triplicate (preferably) or duplicate (minimally) using a one-step qRT-PCR master mix that contains all the components necessary for cDNA synthesis and PCR amplification in a single, continuous reaction. […] The amount of FXN (or GAPDH) in the sample is determined as the relative quantity to the calibrator where the calibrator sample is assigned an arbitrary quantity of 1. The following equation is used: Relative quantity to the calibrator=2^−ΔCt where ΔCt=(Ct_gene)unknown−(Ct_gene)calibrator, gene is either FXN or GAPDH, calibrator is a DMSO control sample, and unknown is a HDACi treated sample. The relative quantity of FXN is normalized to cell number and RNA input. […]

[2] = system: GM 15850 (lymphoblastoid cells line) cells; assay: In-cell deacetylase inhibition assay (DAC assay); assay type: cell-based; conditions: Homo sapiens, GM15850, GM 15850 cells, 4 h incubation
Method: Compound dilutions were made in 100% DMSO followed by parallel dilution in media with 2% DMSO. 10 μl of the compound dilutions were added to the cells to achieve the desired concentrations. The final concentration of DMSO in each well was 0.2%. The cells were incubated for 4 h at 37° C. with 5% CO2. After incubation, the cells were centrifuged down and the supernatant was removed. […] The reaction was stopped after 30 min incubation by addition of 50 μL developer (6 mg/mL trypsin in HDAC assay buffer). The reaction was allowed to develop for 30 min at room temperature and the fluorescence signal was detected using a fluorometer (Spectramax M2, Molecular Devices, Sunnyvale, Calif.) with excitation and emission wavelengths of 360 nm and 470 nm respectively. The data was fitted to a sigmoidal dose response equation with variable slope in GraphPad Prism 5.0 (GraphPad Software, La Jolla, Calif.) to determine IC50. Bottom and top of the curve were fixed to the average fluorescence response of control wells with no cells and cells but no compound respectively.

[3] = Brain penetration studies; conditions: Table 4; mice dosed s.c. at 5 mg/kg or 50 mg/kg, or i.v. at 5 mg/kg; Cmax(brain)/Cmax(plasma)
Method: Test compounds were prepared at either 0.5 mg/ml or 5 mg/ml in 30% hydroxypropyl-β-cyclodextrin, 100 mM sodium acetate pH 5.5, 5% DMSO. C57/BL6/J mice were dosed s.c. at 5 mg/kg or 50 mg/kg, or i.v. at 5 mg/kg. Animals were euthanized at pre-dose, 5, 15, 30 min, 1, 2 and 4 hours post-dose and plasma and brain obtained. Three animals per dose per time points were used. The levels of compound in the plasma and brain were determined by standard LC/MS/MS methods. Brain/plasma ratio (BPR) was calculated as the ratio of the Cmax(brain)/Cmax(plasma).

[4] = Compound stability in hepatocytes; conditions: human hepatocytes, 5 μM compound
Method: To assess the stability and metabolism of RGFP compounds in hepatocytes. This assay was designed to evaluate the metabolism of RGFP compounds, following their incubation with human, monkey, dog and rat hepatocytes by monitoring either parent drug disappearance or metabolite appearance using HPLC.
Procedure: • Turn on the water-bath heater to 37° C. • Take out the KHB buffer and make sure it is at room temp before use • Prepare 2.5 mM concentration of RGFP compound in DMSO stock • Add 10 μL of above DMSO stock to 2490 μL KHB buffer; final concentration of RGFP compound will be 10 μM • Pre-warm 45 ml InVitro HT Medium to 37° C. in a sterile 50 ml conical tube • Add 1.0 mL Torpedo Antibiotic Mix per 45 mL InVitro HT medium • Transfer 13 mL of warm HT medium with Antibiotic Mix into a 15 mL conical tube. • Carefully remove the hepatocyte vials from liquid nitrogen (liquid phase). • Immediately immerse the vial into a 37° C. water bath. Shake gently until the ice melts entirely. […] Loosen the cell pellet by gently swirling the centrifuge tube • Transfer 100 μL of above solution to a different tube and add 900 μL of KHB buffer to count the cells • Determine the total cell count and the number of viable cells using the Trypan Blue exclusion method • Once you obtain the cell count, multiply the number by 10 (attributing to the dilution factor) • Now add required volume of KHB buffer to the tube containing hepatocytes such that the final count will be 2 million cells/mL • Dispense 50 μL of 2 million cells/ml to a 96 well plate and then add 50 μl of DMSO stock to respective wells (such that, the concentration of RGFP compounds is 5 μM and number of cells are 100000 in each well) • Place the plates on a shaker in a 37° C. incubator with 5% CO2 • Separate plates for each time point are advisable (Time points: 0 h, 1 h, 2 h, and 6 h) • After each time point, add 100 μL of quenching solution. • Quenching solution is an acetonitrile solution containing RGFP531 (10 μM) internal standard, 0.1% formic acid and phenylglyoxol (400 μM). The formic acid and phenylglyoxal is used for the identification and quantification of OPD as mentioned above. • Pipette up and down a few times to ensure a complete stop of reaction • Transfer all the solution into a 1.5 ml tube, vortex thoroughly, and centrifuge at 14000 RPM at 4° C. for 5 minutes to precipitate cell debris
Transfer the 150 μL of supernatant to vials for analysis using HPLC

[5] = system: HCT116 cells; assay: Cell proliferation assay; assay type: cell-based; conditions: Homo sapiens, HCT-116, 72 h, read-out: Hct-116 (anti-proliferation IC50)
Method: HCT116 cells (5000 cells/well) in 80 μL McCoy's 5 A medium containing 10% v/v FBS, 1% v/v penicillin/streptomycin and 1% v/v L-glutamine were incubated in 96-well plates with compounds at various concentrations for 72 h at 37° C. in a 5% CO2 atmosphere. The compound dilutions were made in 100% DMSO followed by parallel dilutions in media. The final concentration of DMSO in each well was 0.05%. After 72 h, 20 μL of Cell titer 96 aqueous one solution (Promega Corporation, Madison, Wis.) were added to the cells and the plate was incubated at 37° C. for another 4 h. The absorbance at 490 nm was then recorded on a 96-well plate reader (Spectramax M2, Molecular Devices, Sunnyvale, Calif.). Data analysis was performed in Microsoft Excel (Microsoft Corp, Redmond, Wash.).

[6] = system: C57BL/6J male mice; assay: Long term memory for object recognition; assay type: in vivo; conditions: 3, 10, 30 mg/kg subcutaneous; object recognition memory task
Method: C57BL/6J male mice were handled 1-2 min for 5 days and were habituated to the experimental apparatus 5 min a day for 4 consecutive days in the absence of objects. […] 24-h later mice were tested for memory retention (5 min) using the object recognition memory task (ORM), in which a familiar object was replaced with a novel one. All training and testing trials were videotaped and analyzed by individuals blind to the treatment condition and the genotype of subjects. A mouse was scored as exploring an object when its head was oriented toward the object within a distance of 1 cm or when the nose was touching the object. The relative exploration time was recorded and expressed by a discrimination index [DI=(tnovel−tfamiliar)/(tnovel+tfamiliar)×100].

Row | SMILES | IC50 ([2]; Table 4, read-out: DAC IC50) | BPR [3] | % left 6h Hum [4] | further results
1 | CC(C)(C)CN1CCC(=Cc2ccc(C(=O)Nc3ccccc3N)cc2)CC1 [F14] | 1 to 5 µM | A (A is greater than 1) |  | Fxn >2X (uM) [1]: A (A if less than 5 μM)
2 | Nc1ccccc1NC(=O)c1ccc(C=C2COC2)cc1F [F9] | < 1 µM |  | IA (IA<10%) | 
3 | Cn1cnc(/C=C/C(=O)Nc2ccccc2N)c1 [A12] |  |  |  | IC50 [5]: > 20 µM
4 | Nc1ccccc1NC(=O)c1ccc(C=C2CN(CC3CC3)C2)cc1 [F12] | < 1 µM | A (A is greater than 1) | A (50%<A) | Fxn >2X (uM) [1]: A (A if less than 5 μM)
5 | Nc1ccccc1NC(=O)c1ccc(C=C2CN(CC3CC3)C2)c(Cl)c1 [F10] | 5 to 10 µM | A (A is greater than 1) |  | 
6 | Nc1cc(F)ccc1NC(=O)c1ccc(C=C2CN(CC3CC3)C2)cc1 [F20] |  |  | A (50%<A) | 
7 | Nc1ccccc1NC(=O)/C=C/c1csc(C/C=C/c2ccccc2)n1 [E2, (E)-N-(2-aminophenyl)-3-(2-cinnamylthiazol-4-yl)acrylamide] |  |  |  | IC50 [5]: > 20 µM; IC50 ([2]; read-out: 850 DAC (in-cell deacetylase inhibition IC50)): 10 to 20 µM
8 | Nc1ccccc1NC(=O)c1ccc(C=C2CCN(Cc3cccnc3)CC2)c(Cl)c1 [F7] | 5 to 10 µM |  |  | 
9 | Nc1ccccc1NC(=O)c1ccc(C=C2COC2)c(Cl)c1 [F11] | < 1 µM | A (A is greater than 1) |  | 
10 | Cc1ccc(C(=O)NCCCCCC(=O)Nc2ccc(F)cc2N)cc1 [RGFP 136, reference compound] |  |  |  | dose dependence of the effect on long-term memory [6]: Dose dependent effects
11 | Nc1ccccc1NC(=O)/C=C/c1cnn(CCOc2cc(F)cc(Cl)c2)c1 [B5, (E)-N-(2-aminophenyl)-3-(1-(2-(3-chloro-5-fluorophenoxy)ethyl)-1H-pyrazol-4-yl)acrylamide] |  |  |  | IC50 [5]: 10 to 20 µM
12 | Nc1cc(F)ccc1NC(=O)/C=C/c1cnn(C/C=C/c2ccccc2)c1 [D2, (E)-N-(2-amino-4-fluorophenyl)-3-(1-cinnamyl-1H-pyrazol-4-yl)acrylamide] |  |  |  | dose dependence of the effect on long-term memory [6]: no effect of dose
13 | CC(C)(O)CN1CCC(=Cc2ccc(C(=O)Nc3ccccc3N)cc2)CC1 [F15] | 1 to 5 µM | A (A is greater than 1) | A (50%<A) | Fxn >2X (uM) [1]: A (A if less than 5 μM)
14 | Nc1ccccc1NC(=O)c1ccc(C=C2CCN(CC3CC3)CC2)cc1 [F13] |  | A (A is greater than 1) |  | 
15 | CC(C)(O)CN1CC(=Cc2ccc(C(=O)Nc3ccccc3N)cc2)C1 [F19] |  |  | A (50%<A) | 
16 | CN1C2CCC1CC(=Cc1ccc(C(=O)Nc3ccccc3N)cc1Cl)C2 [F8] | < 1 µM |  |  | 
